47 compounds from ChEMBL document CHEMBL5523670, “Structure activity relationship and target prediction for ABX464 analogues in Caenorhabditis elegans” (Bioorg Med Chem, 2024) can be followed below.

Data set [1] concerns Caenorhabditis elegans. In words: Anthelmintic activity against Caenorhabditis elegans N2 Bristol assessed as reduction in motility of young adults measured for 40 hrs. Type of data set: functional, organism-based. The note with it: for IC50: Caenorhabditis elegans, N2 Bristol, 40 h.
Data set [2] has as its system Caenorhabditis elegans. In words: Anthelmintic activity against Caenorhabditis elegans N2 Bristol assessed as maximum inhibition of motility measured for 40 hrs. Type of data set: functional.
The nature of data set [3]: Cytotoxicity against human HepG2 cells measured for 48 hrs by crystal violet staining based analysis. It is filed as toxicity, cell-based.
Data set [4] is described as follows: Mitotoxicity against human HepG2 cells assessed as reduction in cell viability measured for 48 hrs by crystal violet staining based analysis. Type of data set: toxicity.

SMILES strings stand for the structures. Some results are limits rather than exact numbers.

For orientation: IC50 means the point on the concentration scale where inhibition reaches its midpoint. In general, CC50 refers to the concentration at which the toxic effect on the cells reaches its halfway point.

With `Clc1ccccc1Nc1ccc2cccc(Cl)c2n1`, the concentration for half-maximal inhibition (IC50) in the data set with Caenorhabditis elegans [1] is more than 40 µM.
Still for that read-out and setting: the value for `N#Cc1ccccc1Nc1ccc2cccc(Cl)c2n1` was more than 40 µM; that for `FC(F)(F)Oc1ccc(Nc2cc(Cl)c3ccccc3n2)cc1` was 11 µM.
For the compound `Fc1cccc2ccc(Nc3ccc(OC(F)(F)F)cc3)nc12`, the Imax with Caenorhabditis elegans [2] is recorded as 69%. Further, the IC50 with Caenorhabditis elegans [1] is 18 µM.
For the compound `FC(F)(F)Oc1ccc(Nc2nc3ccccc3cc2Cl)cc1`, the 50% inhibitory concentration (IC50) with Caenorhabditis elegans [1] is more than 40 µM.
As to `FC(F)(F)c1ccccc1Nc1ccc2cccc(Cl)c2n1`, the 50% inhibitory concentration (IC50) with Caenorhabditis elegans [1] is more than 40 µM.
Consider `Clc1cccc2ccc(Nc3ccccc3)nc12`, for which, in the data set on Caenorhabditis elegans [1], the concentration for half-maximal inhibition (IC50) was determined as 11 µM. Besides, the Imax in the data set with Caenorhabditis elegans [1] (time 40 hrs) is 52%.
Regarding `Cc1cccc2ccc(Nc3ccc(OC(F)(F)F)cc3)nc12`, in the data set with Caenorhabditis elegans [1], the IC50 is more than 40 µM.
On the same count and under the same terms, the value for `FC(F)(F)Oc1ccc(Nc2ccc3cccc(Cl)c3n2)cc1Cl` was more than 40 µM.
Take `Clc1cccc2ccc(Nc3ccc(-c4ccccc4)cc3)nc12`: the half-maximal inhibitory concentration (IC50) with Caenorhabditis elegans [1] is more than 40 µM.
Same read-out and setting: the value for `Fc1cccc(Nc2ccc3cccc(Cl)c3n2)c1` was 29 µM.
The same measure, in the same setting: as for `COc1cccc2ccc(Nc3ccc(OC(F)(F)F)cc3)nc12`, the figure is more than 40 µM; as for `Cc1cccc(Nc2ccc3cccc(Cl)c3n2)c1`, 22 µM.
With `FC(F)(F)c1ccc(Nc2ccc3cccc(Cl)c3n2)cc1`, the CC50 at 48 h in data set [3] and in data set [4] was not below 40 µM throughout.
Turning to `FC(F)(F)Oc1ccc(Nc2ccc3cc(Cl)ccc3n2)cc1`, in the data set with Caenorhabditis elegans [1], the IC50 was more than 40 µM.
For `Cc1ccc(Nc2ccc3cccc(Cl)c3n2)cc1`, the Imax in the data set with Caenorhabditis elegans [2] is given as 59%. The IC50 with Caenorhabditis elegans [1] turned out to be 28 µM.
In the case of `FC(F)(F)c1ccc(Nc2ccc3cccc(Cl)c3n2)nc1`, the concentration for half-maximal inhibition (IC50) with Caenorhabditis elegans [1] was more than 40 µM.
On the same count and under the same terms, the value for `FC(F)(F)Oc1ccc(Nc2ccc3ccccc3n2)cc1` was more than 40 µM.
Still for that read-out and setting: as for `FC(F)(F)Oc1cccc(Nc2ccc3cccc(Cl)c3n2)c1`, the figure is more than 40 µM.
With `CN(c1ccc(OC(F)(F)F)cc1)c1ccc2cccc(Cl)c2n1`, the Imax with Caenorhabditis elegans [2] is given as 81%. Further, the CC50 at 48 h in data set [3] and in data set [4] was not below 40 µM in each case. The half-inhibitory concentration (IC50) in the data set on Caenorhabditis elegans [1] is 78 µM.
With `FC(F)(F)Oc1ccc(Oc2ccc3cccc(Cl)c3n2)cc1`, the IC50 in the data set with Caenorhabditis elegans [1] is more than 40 µM.
As for `FC(F)(F)Oc1ccc(Nc2ccc3c(Cl)cccc3n2)cc1`, the CC50 at 48 h in data set [3] and in data set [4] was not below 40 µM each time. The IC50 with Caenorhabditis elegans [1] stood at 7.1 µM.
For `Fc1ccc(Nc2ccc3cccc(Cl)c3n2)cc1`, the Imax in the data set on Caenorhabditis elegans [2] was 57%. In addition, the half-maximal inhibitory concentration (IC50) in the data set on Caenorhabditis elegans [1] came out at 16 µM.
On to `FC(F)(F)c1ccc(Nc2ccc3cccc(Cl)c3n2)cn1`, for which the half-maximal inhibitory concentration (IC50) in the data set on Caenorhabditis elegans [1] was more than 40 µM.
The same measure, in the same setting: as for `FC(F)(F)Oc1ccc(Nc2ccc3cccc(-c4ccccc4)c3n2)cc1`, the figure is more than 40 µM; as for `N#Cc1cccc(Nc2ccc3cccc(Cl)c3n2)c1`, more than 40 µM.
In the case of `Clc1ccc(Nc2ccc3cccc(Cl)c3n2)cc1Cl`, the Imax in the data set on Caenorhabditis elegans [2] is given as 100%. The cytotoxic concentration (CC50) at 48 h in data set [3] and in data set [4] was not below 40 µM throughout. In addition, in the data set with Caenorhabditis elegans [1], the IC50 came to 6.9 µM.
Regarding `FC(F)(F)c1cc(Nc2ccc3cccc(Cl)c3n2)ccc1Cl`, the Imax in the data set on Caenorhabditis elegans [2] was 82%. For the same compound, in the data set on Caenorhabditis elegans [1], the half-inhibitory concentration (IC50) worked out at 7 µM.
For the compound `COc1cccc(Nc2ccc3cccc(Cl)c3n2)c1`, the 50% inhibitory concentration (IC50) with Caenorhabditis elegans [1] came out at 21 µM.
For `FC(F)(F)c1ccc(Nc2ccc3cccc(Cl)c3n2)cc1C(F)(F)F`, the 50% inhibitory concentration (IC50) in the data set with Caenorhabditis elegans [1] was more than 40 µM.
With `N#Cc1cccc2ccc(Nc3ccc(OC(F)(F)F)cc3)nc12`, the IC50 with Caenorhabditis elegans [1] is more than 40 µM.
The same measure, in the same setting: as for `Clc1cccc2ccc(Nc3ccccc3-c3ccccc3)nc12`, the figure is more than 40 µM; as for `Clc1cccc2ccc(Nc3cccc(-c4ccccc4)c3)nc12`, more than 40 µM.
On to `Clc1cccc(Nc2ccc3cccc(Cl)c3n2)c1`, for which the half-maximal cytotoxic concentration (CC50) at 48 h in data set [3] and in data set [4] was not below 40 µM each time. Further, the half-inhibitory concentration (IC50) in the data set with Caenorhabditis elegans [1] amounted to 11 µM.
In the case of `FC(F)(F)Oc1ccc(Nc2ccccn2)cc1`, the IC50 in the data set with Caenorhabditis elegans [1] was more than 40 µM.
With `Oc1ccc(Nc2ccc3cccc(Cl)c3n2)cc1`, the IC50 with Caenorhabditis elegans [1] is more than 40 µM.
Turning to `FC(F)(F)Oc1ccc(Nc2ccc3cccc(Br)c3n2)cc1`, in the data set on Caenorhabditis elegans [2], the Imax came out at 67%. Besides, the half-inhibitory concentration (IC50) with Caenorhabditis elegans [1] was determined as 5.9 µM.
The like results for `Clc1ccc(Nc2ccc3cccc(Cl)c3n2)cc1` were, in that order, 58% and 14 µM.
Consider `N#Cc1ccc(Nc2ccc3cccc(Cl)c3n2)cc1`, for which the IC50 in the data set on Caenorhabditis elegans [1] is more than 40 µM.
Consider `COc1ccc(Nc2ccc3cccc(Cl)c3n2)cc1`, for which, in the data set with Caenorhabditis elegans [1], the half-maximal inhibitory concentration (IC50) is more than 40 µM.
`Fc1ccccc1Nc1ccc2cccc(Cl)c2n1`: in the data set with Caenorhabditis elegans [1], the IC50 is more than 40 µM.
Turning to `FC(F)(F)c1cccc(Nc2ccc3cccc(Cl)c3n2)c1`, in the data set with Caenorhabditis elegans [2], the Imax is on record as 55%. Besides, the 50% inhibitory concentration (IC50) in the data set with Caenorhabditis elegans [1] came out at 3.2 µM.
As to `COc1ccccc1Nc1ccc2cccc(Cl)c2n1`, the 50% inhibitory concentration (IC50) with Caenorhabditis elegans [1] was more than 40 µM.
Same read-out and setting: the value for `FC(F)(F)Oc1ccccc1Nc1ccc2cccc(Cl)c2n1` was more than 40 µM; that for `C[C@](C#N)(COc1cc(C#N)ccc1C(F)(F)F)NC(=O)c1ccc(SC(F)(F)F)cc1` [MONEPANTEL] was 0.03 µM; that for `CO/N=C1\C[C@]2(C[C@@H]3C[C@@H](C/C=C(\C)C[C@@H](C)/C=C/C=C4\CO[C@@H]5[C@H](O)C(C)=C[C@@H](C(=O)O3)[C@]45O)O2)O[C@H](/C(C)=C/C(C)C)[C@H]1C` [MOXIDECTIN] was 0.1 µM.
As to `FC(F)(F)Oc1ccc(Nc2ccc3cccc(Cl)c3n2)cc1` [OBEFAZIMOD], the Imax in the data set with Caenorhabditis elegans [2] amounted to 94%. For the same compound, in the data set on Caenorhabditis elegans [1], the half-maximal inhibitory concentration (IC50) is 7.2 µM.
